The source made the active and inactive calls.
Legend:
[1] = NIH-3T3 fibroblast cytotoxicity, dose response, cytotoxicity control, cell-based, fluorescence, Alamar Blue, secondary assay (AID 2327); assay type: functional;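 further: NIH-3T3 mouse fibroblasts cultured with fluconazole at 8 µg/mL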
[2] = C. albicans growth with fluconazole, confirmation, fluorescence, retest (AID 2467); assay type: functional, cell-based
[3] = biological target: T1, Rac GTPase-activating protein 1 (Homo sapiens, UniProt Q9H0H5); experiment: MgcRacGAP GTPase-activating activity inhibitors, confirmation, biochemical, ADP Hunter fluorescence, primary and confirmatory (AID 624330); assay type: functional
T1 sequence (Q9H0H5 whole entry): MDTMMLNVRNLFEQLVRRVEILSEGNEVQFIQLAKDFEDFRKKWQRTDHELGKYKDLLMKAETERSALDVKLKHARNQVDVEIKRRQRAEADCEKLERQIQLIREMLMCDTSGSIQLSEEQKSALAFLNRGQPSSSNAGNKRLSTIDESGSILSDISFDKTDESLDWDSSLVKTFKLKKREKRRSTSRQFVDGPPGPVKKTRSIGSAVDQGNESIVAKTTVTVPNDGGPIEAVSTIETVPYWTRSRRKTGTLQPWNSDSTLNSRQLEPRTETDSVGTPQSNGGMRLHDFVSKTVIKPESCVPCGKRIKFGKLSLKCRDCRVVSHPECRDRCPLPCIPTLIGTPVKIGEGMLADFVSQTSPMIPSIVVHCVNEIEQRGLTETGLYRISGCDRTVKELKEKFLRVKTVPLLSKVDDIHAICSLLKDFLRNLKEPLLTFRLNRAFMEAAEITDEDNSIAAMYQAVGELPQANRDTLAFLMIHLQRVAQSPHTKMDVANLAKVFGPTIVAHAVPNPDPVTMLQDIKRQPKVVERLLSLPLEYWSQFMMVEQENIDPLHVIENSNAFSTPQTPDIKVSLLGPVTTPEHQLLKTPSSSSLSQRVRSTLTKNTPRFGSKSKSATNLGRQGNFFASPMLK

Nonstructural protein 1 = Nonstructural protein 1 (Influenza A virus, UniProt Q194T2); assay type: functional, Influenza A virus (A/California/07/2009(H1N1))
[4] = biological target: T2, Zinc finger protein mex-5 (Caenorhabditis elegans, UniProt Q9XUB2); experiment: MEX-5/TCR-2 RNA interaction inhibitors, dose response, biochemical, C. elegans, fluorescence polarization (AID 1960)
T2 sequence (Q9XUB2 whole entry): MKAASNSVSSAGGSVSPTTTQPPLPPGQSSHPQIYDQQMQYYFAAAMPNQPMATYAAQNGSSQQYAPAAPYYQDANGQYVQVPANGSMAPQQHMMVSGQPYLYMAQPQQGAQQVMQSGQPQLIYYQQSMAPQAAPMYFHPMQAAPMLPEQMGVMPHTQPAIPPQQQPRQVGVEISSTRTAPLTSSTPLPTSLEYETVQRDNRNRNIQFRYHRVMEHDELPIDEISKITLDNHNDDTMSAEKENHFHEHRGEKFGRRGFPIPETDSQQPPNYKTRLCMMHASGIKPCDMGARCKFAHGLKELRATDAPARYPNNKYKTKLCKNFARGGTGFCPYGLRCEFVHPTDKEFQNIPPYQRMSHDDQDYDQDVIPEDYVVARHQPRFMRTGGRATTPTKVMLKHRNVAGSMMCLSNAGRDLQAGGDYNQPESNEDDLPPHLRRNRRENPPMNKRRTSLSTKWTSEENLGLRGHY

[5] = biological target: T3, RNA-binding protein pos-1 (Caenorhabditis elegans, UniProt G5EF15); experiment: inhibitors of POS-1/mex-3 RNA binding, dose response, biochemical, fluorescence polarization (AID 1964);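 further: purified POS-1 fused to maltose binding protein made in E. coli; potency of compounds blocking POS-1 binding to fluorescent RNA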
T3 sequence (G5EF15 whole entry): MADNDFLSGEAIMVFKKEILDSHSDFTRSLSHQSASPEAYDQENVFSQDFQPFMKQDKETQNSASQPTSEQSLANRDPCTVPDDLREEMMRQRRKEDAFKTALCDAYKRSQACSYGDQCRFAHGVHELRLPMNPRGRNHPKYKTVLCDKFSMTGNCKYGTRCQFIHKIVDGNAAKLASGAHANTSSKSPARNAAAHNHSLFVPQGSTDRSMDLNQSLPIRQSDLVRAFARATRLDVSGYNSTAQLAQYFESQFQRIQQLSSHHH

[6] = biological target: T4, Heat shock factor protein 1 (Mus musculus, UniProt P38532); experiment: HSF1 potentiators in luciferase reporter cells, confirmation, cell-based, NIH3T3, luminescence, dose retest (AID 435004); assay type: functional;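 further: stress induced by proteasome inhibitor MG132 added 30 min after compound; luciferase reporter driven by HSF1 response element in NIH3T3 cells; actives raise luminescence as potentiators of the MG132 stress response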
T4 sequence (P38532 whole entry): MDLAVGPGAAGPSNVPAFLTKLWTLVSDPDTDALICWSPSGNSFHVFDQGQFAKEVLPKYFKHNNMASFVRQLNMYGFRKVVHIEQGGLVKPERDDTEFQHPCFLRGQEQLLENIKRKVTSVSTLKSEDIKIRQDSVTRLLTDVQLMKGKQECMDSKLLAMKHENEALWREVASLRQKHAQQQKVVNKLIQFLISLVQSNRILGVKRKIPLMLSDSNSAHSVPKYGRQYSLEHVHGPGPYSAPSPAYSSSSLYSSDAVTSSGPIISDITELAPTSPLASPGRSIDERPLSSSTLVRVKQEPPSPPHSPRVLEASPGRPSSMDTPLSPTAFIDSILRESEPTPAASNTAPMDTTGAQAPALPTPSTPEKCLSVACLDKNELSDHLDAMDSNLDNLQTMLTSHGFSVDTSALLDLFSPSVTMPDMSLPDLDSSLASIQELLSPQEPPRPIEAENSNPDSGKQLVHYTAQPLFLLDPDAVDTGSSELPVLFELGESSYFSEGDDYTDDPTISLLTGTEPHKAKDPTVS

[7] = biological target: T5, Replicative DNA helicase DnaB (Mycobacterium tuberculosis, UniProt P9WMR3); experiment: DnaB intein splicing inhibitors, dose response, biochemical, cell-free fluorescence (AID 449749); assay type: functional
T5 sequence (P9WMR3 whole entry): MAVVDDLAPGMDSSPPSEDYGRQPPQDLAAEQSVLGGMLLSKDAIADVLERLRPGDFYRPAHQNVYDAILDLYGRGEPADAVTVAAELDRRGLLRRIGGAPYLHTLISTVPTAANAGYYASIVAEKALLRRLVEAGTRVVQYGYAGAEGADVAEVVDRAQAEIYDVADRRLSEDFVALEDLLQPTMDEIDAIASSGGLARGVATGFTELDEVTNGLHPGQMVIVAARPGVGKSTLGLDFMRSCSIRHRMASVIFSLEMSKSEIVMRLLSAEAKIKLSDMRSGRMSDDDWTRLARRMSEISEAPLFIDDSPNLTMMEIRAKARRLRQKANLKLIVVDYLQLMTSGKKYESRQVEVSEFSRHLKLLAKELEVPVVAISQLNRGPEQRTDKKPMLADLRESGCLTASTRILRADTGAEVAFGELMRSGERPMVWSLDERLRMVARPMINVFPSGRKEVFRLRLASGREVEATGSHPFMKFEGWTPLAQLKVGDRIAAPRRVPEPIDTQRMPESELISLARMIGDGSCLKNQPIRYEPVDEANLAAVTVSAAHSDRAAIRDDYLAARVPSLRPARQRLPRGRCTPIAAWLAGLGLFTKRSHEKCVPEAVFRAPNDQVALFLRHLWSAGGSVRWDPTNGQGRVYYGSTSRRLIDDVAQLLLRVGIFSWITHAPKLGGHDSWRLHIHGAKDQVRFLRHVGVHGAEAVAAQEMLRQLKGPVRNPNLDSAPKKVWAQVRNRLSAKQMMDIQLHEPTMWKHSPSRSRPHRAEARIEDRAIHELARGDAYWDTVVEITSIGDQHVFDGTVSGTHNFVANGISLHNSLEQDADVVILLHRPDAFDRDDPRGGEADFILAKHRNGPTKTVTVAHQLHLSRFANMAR

Protein RecA = biological target: T6, Protein RecA (Mycobacterium tuberculosis, UniProt P9WHJ3); experiment: Fluorescence Cell-Free Homogeneous Dose Retest to Identify Inhibitors of RecA-Intein Splicing Activity. [Related pubchem assays (depositor defined):AID2097, AID2223, AID489010, AID492950]; assay type: functional
T6 sequence (P9WHJ3 whole entry): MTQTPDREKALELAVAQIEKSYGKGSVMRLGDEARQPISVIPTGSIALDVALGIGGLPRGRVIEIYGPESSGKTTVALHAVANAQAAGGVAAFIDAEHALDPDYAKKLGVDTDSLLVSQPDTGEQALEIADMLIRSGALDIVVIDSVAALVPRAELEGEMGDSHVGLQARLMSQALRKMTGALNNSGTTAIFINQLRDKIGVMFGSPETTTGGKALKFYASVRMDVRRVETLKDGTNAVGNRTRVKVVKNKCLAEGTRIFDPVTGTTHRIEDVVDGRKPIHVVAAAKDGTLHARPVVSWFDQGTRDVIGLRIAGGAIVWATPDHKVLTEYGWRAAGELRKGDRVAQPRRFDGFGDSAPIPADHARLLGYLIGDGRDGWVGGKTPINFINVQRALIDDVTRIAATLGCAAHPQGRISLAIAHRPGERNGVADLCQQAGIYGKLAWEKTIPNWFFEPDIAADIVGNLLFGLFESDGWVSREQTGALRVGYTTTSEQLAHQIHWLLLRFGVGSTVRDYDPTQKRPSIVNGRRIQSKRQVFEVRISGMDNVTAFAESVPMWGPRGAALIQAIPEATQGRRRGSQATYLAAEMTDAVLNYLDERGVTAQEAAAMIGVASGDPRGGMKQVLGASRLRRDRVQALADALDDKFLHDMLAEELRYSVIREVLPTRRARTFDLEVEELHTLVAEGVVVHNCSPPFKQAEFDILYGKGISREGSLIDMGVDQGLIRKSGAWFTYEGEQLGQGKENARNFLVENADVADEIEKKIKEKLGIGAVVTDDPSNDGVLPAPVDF

[8] = inhibitors of clade B AD8 Env fusion, dose response, cell-based, cherry-pick (AID 652062); assay type: functional;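 further: luciferase signal from cell-cell fusion driven by HIV-1 clade B AD8 Env; potency is for inhibitors of fusion seen as a drop in luminescence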
INS1 = experiment: beta cell apoptosis inhibitors, cytokine rescue, dose response, luminescence, retest (AID 449756); assay type: functional, cell-based; conditions: Rattus norvegicus;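 further: cell death triggered by IL-1 beta plus TNF-alpha plus IFN-gamma mixture; protective hits raise ATP signal compared with cytokine alone wells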

Chain of Nonstructural protein 1 (Q194T2 whole entry): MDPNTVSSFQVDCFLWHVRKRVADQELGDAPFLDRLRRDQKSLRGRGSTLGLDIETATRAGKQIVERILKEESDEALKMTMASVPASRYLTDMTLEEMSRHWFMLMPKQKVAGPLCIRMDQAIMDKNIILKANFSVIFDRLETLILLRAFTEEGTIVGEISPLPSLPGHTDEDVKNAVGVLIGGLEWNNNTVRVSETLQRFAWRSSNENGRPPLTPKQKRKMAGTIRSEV

**Q.** What does the source list for `Cc1nn(-c2ccccc2)c(C)c1C(=O)Nc1nnc(-c2ccco2)o1`?
**A.** EC50 [1]: > 150 µM (inactive); EC50 [2]: 1.03 µM (active)

**Q.** For `O=C(c1cccc(F)c1)N1CCN(Cc2cccc(Br)c2)CC1`, which IC50 [3] is on record?
**A.** Its IC50 is 136 µM (active).

**Q.** Which IC50 [3] does the source give for `COc1ccc(OCCOCCN2CCN(C)CC2)cc1` here?
**A.** Its IC50 is 70.2 µM (active).

**Q.** For `Cc1cccc(-n2cnc(C(=O)NN=C(S)Nc3ccc(Cl)cc3)c2)n1`, which IC50 (Nonstructural protein 1) is on record?
**A.** The IC50 was 8.22 µM (active).

**Q.** For `COc1ccc(NC2CCCN(C(=O)COc3ccc(Cl)cc3C)C2)cc1OC` (configuration not stated), which IC50 [3] is on record?
**A.** The IC50 was 110 µM (active).

**Q.** With `COc1cc(C2CC(=O)Oc3c(C(CCN4CCCC(C)C4)c4ccc(N(C)C)cc4)c(OC)cc(OC)c32)cc(OC)c1OC` (configuration not stated) as the molecule, how does the IC50 (Nonstructural protein 1) read?
**A.** The IC50 was 28.5 µM (active).

**Q.** Which EC50 [1] does the source give for `COc1ccc(C(=O)On2c(-c3ccc(Br)cc3)nc3ccccc3c2=O)cc1` here?
**A.** The EC50 was 6.36 µM (inconclusive).

**Q.** What about the EC50 [2] of the same molecule?
**A.** Its EC50 is 1.8 µM (active).

**Q.** Which results are given for `CC(C)(C)c1ccc(SCC(N)=O)cc1`?
**A.** EC50 [1]: > 150 µM (inconclusive); EC50 [2]: > 38 µM (not active)

**Q.** For `O=[N+]([O-])c1cc(Br)c2nsnc2c1N1CCOCC1`, which IC50 (Nonstructural protein 1) is on record?
**A.** Its IC50 is 27.5 µM (active).

**Q.** Which IC50 [3] does the source give for `COc1ccc(N2CCN(CC(=O)N3c4ccccc4CC3C)CC2)cc1` (configuration not stated) here?
**A.** Its IC50 is 79.7 µM (active).

**Q.** Which EC50 [1] does the source give for `Cc1cc(Cl)ccc1NNC(=O)c1c(C)noc1C` here?
**A.** Its EC50 is 32.7 µM (active).

**Q.** And the EC50 [2]?
**A.** The EC50 was > 38 µM (not active).

**Q.** What does the source list for `CN1CCc2c(sc3c2C(=O)NC(c2ccccn2)N3)C1` (configuration not stated)?
**A.** IC50 (Nonstructural protein 1): 13.7 µM (active); EC50 [4]: 14.3 µM (active); EC50 [5]: 15.1 µM (active)

**Q.** Which results are given for `COc1cc(OC)cc(-c2nnc(Sc3ccc(C=O)cc3[N+](=O)[O-])o2)c1`?
**A.** EC50 [6]: > 260 µM (inactive); AC50 [7]: 6.58 µM (active); EC50 (Protein RecA): 2.04 µM (active)

**Q.** Which AC50 [8] does the source give for `O=C(COC(=O)c1cccc(S(=O)(=O)N2CCOCC2)c1)NCc1ccccc1` here?
**A.** Its AC50 is 59.6 µM (active).

**Q.** With `COc1ccc(S(=O)(=O)NC[C@@H]2CC[C@H]3[C@H](CN3Cc3cc(F)ccc3F)O2)cc1` as the molecule, how does the AC50 [8] read?
**A.** Its AC50 is 1.21 µM (active).

**Q.** With `O=C(C[C@@H]1C[C@H]2c3cc(NC(=O)C4CCC4)ccc3O[C@H]2[C@H](CO)O1)NCC(F)(F)F` as the molecule, how does the AC50 [8] read?
**A.** Its AC50 is 1.7 µM (active).

**Q.** Which results are given for `NC(=S)N/N=C/c1ccccc1O`?
**A.** IC50 (Nonstructural protein 1): 14.1 µM (active); AC50 (INS1): 0.945 µM (active)

**Q.** Which results are given for `CSc1nc(Cl)c(C#N)c(-c2ccc(C)cc2)n1`?
**A.** EC50 [1]: > 150 µM (inconclusive); EC50 [2]: 1.55 µM (active)

**Q.** With `O=[N+]([O-])c1cc(/C=N/Nc2nc(N3CCCCC3)nc(N3CCCCC3)n2)ccc1O` as the molecule, how does the IC50 (Nonstructural protein 1) read?
**A.** Its IC50 is > 100 µM (active).

**Q.** For `O=C(Cc1cccs1)N/N=C\c1ccc(O)cc1`, which IC50 [3] is on record?
**A.** The IC50 was 39.3 µM (active).

**Q.** For `CCOC(=O)CC(/C(C)=N\O)c1ccccc1` (configuration not stated), which EC50 [1] is on record?
**A.** The EC50 was > 160 µM (inactive).

**Q.** And the EC50 [2]?
**A.** The EC50 was > 38 µM (not active).

From ChEMBL document CHEMBL1201862, “PubChem BioAssay data set” (2004)
